Measured values reported in US20220227796A1, “EGFR INHIBITORS, COMPOSITIONS AND METHODS THERE OF” (Betta Pharmaceuticals Co., Ltd., priority 2019, published 2022).
Structures can show the parent of a compound that is named as a salt.

Experiments:
EGFR Δ19del/T790M/C797S = EGFR Δ19del/T790M/C797S (Homo sapiens, UniProt P00533, T790M/C797S, form not given); assay: Kinase assay (mobility shift) for EGFR Δ19del/T790M/C797S; format: biochemical; details: read-out: EGFR Δ 19del/T790M/C797S IC50
Protocol: (§1) Enzyme reaction protocol are as followed:
(§2) 1. Preparing 1* Kinase buffer as followed.
(§3) 2. Preparing Compound Concentration Gradient: Compounds were tested at a concentration of 300 nM, diluted to 100-fold final concentration in 100% DMSO solution in 96-well plates, and compounds were diluted 3 times with Precision, 10 concentrations. Each concentration of the compound was then further diluted to a 5-fold final concentration of the intermediate dilution solution using 1* Kinase buffer.
(§4) 3. 5 μL of each of the prepared intermediate dilution compounds was separately added to the compound wells of the 384-well plate, and each concentration was tested for duplicate wells; 5 μL of 5% DMSO was added to the negative control wells and the positive control wells, respectively.
(§5) 4. 2.5-fold final concentration of the kinase solution was prepared using 1*Kinase buffer.
(§6) 6. Centrifuge at 1000 rpm for 30 seconds, shake the reaction plate and incubate for 10 minutes at room temperature.
(§7) 8. 10 μL of a 2.5-fold final concentration of a mixed solution of ATP and a substrate was added to initiate the reaction.
(§8) 9. Centrifuge the 384-well plate at 1000 rpm for 30 seconds, mix by shaking, and incubate at room temperature for the corresponding time.
(§9) 10. Add 30 μL of the stop solution to stop the kinase reaction, centrifuge at 1000 rpm for 30 seconds, and mix by shaking.
(§10) 11. Read the conversion rate with Caliper EZ Reader.
(§11) Convert conversion values to inhibition values:
(§12) Percent inhibition=(max−conversion % sample)/(max−min)*100.
(§13) “max” stands for the mean value of the positive control well ratio; “min” stands for the mean value of the negative control well; conversion % sample: sample conversion reading.
(§14) Fit the data in log(inhibitor) vs. response Variable slope of GraphPad Prism 5 to obtain IC50 values.
(§15) Equation used is: Y=Bottom+(Top−Bottom)/(1+(IC50/X)*HillSlope)

Ba/F3-Δ19del/T790M/C797S = Ba/F3-Δ19del/T790M/C797S (Homo sapiens, UniProt P00533, T790M/C797S, cells depend on it, form not given); assay: Ba/F3-Δ19del/T790M/C797S cells proliferation assay; format: cell-based; details: cell proliferation, 72 h, CellTiter Glo; class symbols; read-out: BaF3 Δ 19del/T790M/C797S IC50
Sequence of Ba/F3-Δ19del/T790M/C797S (P00533 with tags, fused parts or gaps DEL746-750/T790M/C797S, form open): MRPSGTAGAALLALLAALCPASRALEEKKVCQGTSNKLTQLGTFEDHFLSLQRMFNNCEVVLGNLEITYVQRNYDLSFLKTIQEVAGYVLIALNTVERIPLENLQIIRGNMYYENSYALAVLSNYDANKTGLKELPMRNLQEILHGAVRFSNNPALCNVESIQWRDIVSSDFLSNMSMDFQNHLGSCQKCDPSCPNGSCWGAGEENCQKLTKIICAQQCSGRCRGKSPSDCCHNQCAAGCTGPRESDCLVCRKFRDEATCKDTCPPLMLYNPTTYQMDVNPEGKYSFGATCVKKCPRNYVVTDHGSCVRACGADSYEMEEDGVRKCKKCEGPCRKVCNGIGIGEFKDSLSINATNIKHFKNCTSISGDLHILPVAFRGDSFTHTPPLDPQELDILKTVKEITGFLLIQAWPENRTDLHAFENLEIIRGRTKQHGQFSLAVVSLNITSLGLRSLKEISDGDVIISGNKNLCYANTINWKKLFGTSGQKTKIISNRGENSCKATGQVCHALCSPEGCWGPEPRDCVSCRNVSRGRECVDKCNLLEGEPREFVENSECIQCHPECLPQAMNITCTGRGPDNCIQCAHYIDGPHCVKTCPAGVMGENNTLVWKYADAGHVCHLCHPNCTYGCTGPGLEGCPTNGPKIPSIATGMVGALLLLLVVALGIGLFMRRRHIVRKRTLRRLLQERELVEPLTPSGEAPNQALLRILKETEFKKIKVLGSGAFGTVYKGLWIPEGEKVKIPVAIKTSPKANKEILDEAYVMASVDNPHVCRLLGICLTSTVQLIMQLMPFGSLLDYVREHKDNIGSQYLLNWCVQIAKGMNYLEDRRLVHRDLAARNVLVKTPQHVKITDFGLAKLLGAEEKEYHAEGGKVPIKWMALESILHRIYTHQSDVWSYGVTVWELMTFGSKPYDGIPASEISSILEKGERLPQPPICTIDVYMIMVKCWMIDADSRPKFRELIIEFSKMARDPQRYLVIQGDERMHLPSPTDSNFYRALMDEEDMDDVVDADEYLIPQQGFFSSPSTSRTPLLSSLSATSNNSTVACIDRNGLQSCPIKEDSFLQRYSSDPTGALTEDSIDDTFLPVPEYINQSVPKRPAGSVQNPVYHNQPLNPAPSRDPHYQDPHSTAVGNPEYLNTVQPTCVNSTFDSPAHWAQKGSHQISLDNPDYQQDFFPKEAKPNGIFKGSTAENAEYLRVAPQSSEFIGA
Protocol: a) The medium was preheated in a 37 water bath in advance.
(§16) b) Remove the cryogenic vials from the liquid nitrogen tank, quickly put it into a 37° C. water bath, and completely melt it in 1 min.
c) Transfer the cell suspension to a 15 mL centrifuge tube containing 8 mL medium, centrifuge 1000 rpm, 5 min,
(§17) d) Discard the supernatant, resuspend the cells in 1 mL medium, and transfer to a 75 cm^2 flask containing 15 mL medium, culture the cells in an incubator at 37° C., 5% CO2.
a) The medium was preheated in a 37° C.; water bath in advance.
(§18) b) Collect cell to a 15 mL centrifuged tube, centrifuge at 1000 rpm for 5 min. Discard the supernatant, count, and make the cell density at 1×10^4 cells/mL, then place it in a 37° C., 5% CO2 incubator.
(§19) b) The above compound solution was diluted 1:20 times with culture medium to prepare a 10 fold working solution;
(§20) a) Take cells in log phase growth, centrifuge at 1000 rpm for 5 min, then resuspend the cells with culture medium, then count cells;
b) Cells were seeded to 96-well cell culture plate with density at 2000 cells/well;
(§21) The blank control well was a culture medium (0.5% DMSO);
(§22) b) The cells were incubated for an additional 72 h in the incubator.
(§23) a) Remove the 96-well cell culture plate and add 50 μl of CTG reagent (CellTiter Glo kit, promega, Cat #G7573).
(§24) b) Plate was shaked for 2 min and then let it cool for 10 min at room temperature.
(§25) c) The Luminescence signal value was read using a PerkinElmer reader.
(§26) Experimental Data Analysis
(§27) Data were analyzed using GraphPad Prism 6.0 software to obtain a fitted curve of compound activity.
Y=Bottom+(Top−Bottom)/(1+10^((Log IC50−X)*Hill Slope));
(§28) The cells proliferation assay results are expressed with IC50, shown as Table 2.

HCC827(Δ19del) = assay: HCC827 cells proliferation assay; format: cell-based; details: Homo sapiens, HCC827; cell proliferation, 72 h, CellTiter Glo; class symbols; read-out: HCC827 IC50
Protocol: (§29) Test 3 H1975 and HCC827 Cells Proliferation Assay
(§30) a) The medium was preheated in a 37° C. water bath in advance.
as §16
(§31) c) Transfer the cell suspension to a 15 mL centrifuge tube containing 8 mL medium, centrifuge 1000 rpm, 5 min.
as §17, §18, §19, §20
(§32) b) Cells were seeded to 96-well cell culture plate with density at 2000 cells/well (suitable for H1975 cell) and at 2500 cells/well (suitable for HCC827 cell);
as §21, §22, §23, §24, §25, §26, §27
(§33) Y=Bottom+(Top−Bottom)/(1+10^((Log IC50−X)*HillSlope));
as §28

H1975(L858R/T790M) = assay: H1975 cells proliferation assay; format: cell-based; details: Homo sapiens, NCI-H1975; cell proliferation, 72 h, CellTiter Glo; class symbols; read-out: H1975 IC50
Protocol: as §29, §30, §16, §31, §17, §18, §19, §20, §32, §21, §22, §23, §24, §25, §26, §27, §33, §28

EGFR T790M/L858R = EGFR T790M/L858R (Homo sapiens, UniProt P00533, L858R/T790M); assay: Kinase assay (mobility shift) for EGFR T790M/L858R; format: biochemical
Sequence of EGFR T790M/L858R (P00533 25-1210 T790M/L858R): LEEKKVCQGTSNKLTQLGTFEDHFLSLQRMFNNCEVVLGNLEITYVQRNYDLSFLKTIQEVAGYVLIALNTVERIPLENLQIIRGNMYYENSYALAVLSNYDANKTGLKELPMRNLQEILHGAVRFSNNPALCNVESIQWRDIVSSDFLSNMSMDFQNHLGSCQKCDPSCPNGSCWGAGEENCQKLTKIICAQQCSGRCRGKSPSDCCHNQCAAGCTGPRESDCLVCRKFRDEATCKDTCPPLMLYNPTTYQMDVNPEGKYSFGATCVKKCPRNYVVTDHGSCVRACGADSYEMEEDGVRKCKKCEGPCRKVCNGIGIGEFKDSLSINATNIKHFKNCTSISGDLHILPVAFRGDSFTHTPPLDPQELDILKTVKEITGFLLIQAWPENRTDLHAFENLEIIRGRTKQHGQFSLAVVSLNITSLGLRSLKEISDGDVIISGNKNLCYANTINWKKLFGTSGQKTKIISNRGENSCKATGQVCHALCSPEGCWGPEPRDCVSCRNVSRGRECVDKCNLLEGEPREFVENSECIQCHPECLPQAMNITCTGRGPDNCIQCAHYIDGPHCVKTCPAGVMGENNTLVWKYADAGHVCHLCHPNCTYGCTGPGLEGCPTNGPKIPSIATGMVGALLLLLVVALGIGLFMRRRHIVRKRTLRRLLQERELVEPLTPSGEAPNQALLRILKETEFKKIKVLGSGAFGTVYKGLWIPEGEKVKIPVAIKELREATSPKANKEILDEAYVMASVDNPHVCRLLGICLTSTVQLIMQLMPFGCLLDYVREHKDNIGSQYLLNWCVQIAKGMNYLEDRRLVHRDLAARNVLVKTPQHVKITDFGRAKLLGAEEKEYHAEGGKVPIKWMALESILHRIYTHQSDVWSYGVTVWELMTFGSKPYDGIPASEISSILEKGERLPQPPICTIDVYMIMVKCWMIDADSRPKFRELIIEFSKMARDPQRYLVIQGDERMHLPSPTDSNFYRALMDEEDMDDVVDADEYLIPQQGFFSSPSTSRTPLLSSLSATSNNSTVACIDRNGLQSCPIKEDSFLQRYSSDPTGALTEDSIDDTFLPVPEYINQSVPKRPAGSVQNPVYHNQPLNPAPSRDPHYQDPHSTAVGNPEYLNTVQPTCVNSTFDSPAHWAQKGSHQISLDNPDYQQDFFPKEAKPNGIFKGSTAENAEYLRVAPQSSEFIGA
Protocol: as §1, §2, §3, §4, §5, §6, §7, §8, §9, §10, §11, §12, §13, §14, §15

EGFR L858R = EGFR L858R (Homo sapiens, UniProt P00533, L858R); assay: Kinase assay (mobility shift) for EGFR L858R; format: biochemical
Sequence of EGFR L858R (P00533 25-1210 L858R): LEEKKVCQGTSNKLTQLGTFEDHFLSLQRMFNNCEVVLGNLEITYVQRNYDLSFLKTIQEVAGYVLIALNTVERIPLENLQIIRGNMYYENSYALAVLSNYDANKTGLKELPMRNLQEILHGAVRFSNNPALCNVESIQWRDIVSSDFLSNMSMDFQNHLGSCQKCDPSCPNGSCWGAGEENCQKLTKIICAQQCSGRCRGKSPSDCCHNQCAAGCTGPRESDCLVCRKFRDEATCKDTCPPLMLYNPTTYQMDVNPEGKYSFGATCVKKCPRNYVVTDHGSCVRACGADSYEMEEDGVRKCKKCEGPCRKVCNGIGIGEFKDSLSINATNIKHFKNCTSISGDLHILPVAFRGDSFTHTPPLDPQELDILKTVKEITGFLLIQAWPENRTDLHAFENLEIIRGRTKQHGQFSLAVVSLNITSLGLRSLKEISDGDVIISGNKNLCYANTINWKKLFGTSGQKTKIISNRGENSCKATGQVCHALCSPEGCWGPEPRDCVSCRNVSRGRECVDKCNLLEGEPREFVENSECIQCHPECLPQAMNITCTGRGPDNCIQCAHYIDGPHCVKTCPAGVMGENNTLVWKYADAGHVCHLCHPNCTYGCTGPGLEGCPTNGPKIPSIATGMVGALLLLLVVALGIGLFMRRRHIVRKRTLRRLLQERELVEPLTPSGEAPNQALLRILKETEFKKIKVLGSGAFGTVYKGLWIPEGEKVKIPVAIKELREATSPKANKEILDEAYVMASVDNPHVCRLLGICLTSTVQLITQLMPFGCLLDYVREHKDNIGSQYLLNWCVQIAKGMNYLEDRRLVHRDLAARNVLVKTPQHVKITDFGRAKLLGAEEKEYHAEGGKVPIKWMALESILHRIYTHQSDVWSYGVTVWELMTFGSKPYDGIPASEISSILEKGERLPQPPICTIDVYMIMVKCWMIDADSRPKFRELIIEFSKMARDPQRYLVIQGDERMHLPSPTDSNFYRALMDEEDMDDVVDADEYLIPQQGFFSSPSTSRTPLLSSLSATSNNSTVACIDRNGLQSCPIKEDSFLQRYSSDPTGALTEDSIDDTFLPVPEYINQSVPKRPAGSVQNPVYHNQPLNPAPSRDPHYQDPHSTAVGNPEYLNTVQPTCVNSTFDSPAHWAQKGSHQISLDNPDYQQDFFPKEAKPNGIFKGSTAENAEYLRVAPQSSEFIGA
Protocol: as §1, §2, §3, §4, §5, §6, §7, §8, §9, §10, §11, §12, §13, §14, §15

Sequence of EGFR Δ19del/T790M/C797S (P00533 with tags, fused parts or gaps DEL746-750/T790M/C797S, form open): as the sequence (P00533 with tags, fused parts or gaps DEL746-750/T790M/C797S, form open) above

For `C=CC(=O)N(C)c1cc(Nc2ncc(Cl)c(Nc3ccccc3P(C)(C)=O)n2)ccc1N1CCC2(CC1)CC(N(C)C)C2` [Compound 6, N-(5-((5-chloro-4-((2-(dimethylphosphoryl)phenyl)amino)pyrimidin-2-yl)amino)-2-(2-(dimethylamino)-7-azaspiro[3.5]nonan-7-yl)phenyl)-N-methylacrylamide], the IC50 (EGFR Δ19del/T790M/C797S) was < 10 nM and the GI50 (Ba/F3-Δ19del/T790M/C797S) was 10 to 50 nM.
For `C=CC(=O)Nc1cc(Nc2ncc(Cl)c(Nc3ccc4nccnc4c3P(C)(C)=O)n2)c(OC)cc1N1CCC2(CC1)CC(N(C)C)C2` [Compound 11, N-(5-((5-chloro-4-((5-(dimethylphosphoryl)quinoxalin-6-yl)amino)pyrimidin-2-yl)amino)-2-(2-(dimethylamino)-7-azaspiro[3.5]nonan-7-yl)-4-methoxyphenyl)acrylamide], the IC50 (HCC827(Δ19del)) was 10 to 50 nM, the IC50 (EGFR Δ19del/T790M/C797S) was < 10 nM and the IC50 (H1975(L858R/T790M)) was 10 to 50 nM. For the same compound, the GI50 (Ba/F3-Δ19del/T790M/C797S) was 10 to 50 nM.
In the case of `C=CC(=O)Nc1cc(Nc2ncc(C)c(Nc3ccccc3P(C)(C)=O)n2)ccc1N(C)CCN(C)C` [Compound 19, N-(2-((2-(dimethylamino)ethyl)(methyl)amino)-5-((4-((2-(dimethylphosphoryl)phenyl)amino)-5-methylpyrimidin-2-yl)amino)phenyl)acrylamide hydrochloric acid salt], the IC50 (EGFR T790M/L858R) is reported as < 10 nM, the IC50 (HCC827(Δ19del)) is reported as < 10 nM and the IC50 (EGFR L858R) is reported as < 10 nM. For the same compound, the IC50 (EGFR Δ19del/T790M/C797S) was < 10 nM, the IC50 (H1975(L858R/T790M)) was 10 to 50 nM and the GI50 (Ba/F3-Δ19del/T790M/C797S) was 10 to 50 nM.
With `C=CC(=O)Nc1cc(Nc2ncc(C)c(Nc3ccccc3P(C)(C)=O)n2)c(OC)cc1N(C)CCN(C)C` [Compound 21, N-(2-((2-(dimethylamino)ethyl)(methyl)amino)-5-((4-((2-(dimethylphosphoryl)phenyl)amino)-5-methylpyrimidin-2-yl)amino)-4-methoxyphenyl)acrylamide] the IC50 (EGFR T790M/L858R) was < 10 nM, the IC50 (HCC827(Δ19del)) was < 10 nM and the IC50 (EGFR L858R) was < 10 nM. It also gave an IC50 (EGFR Δ19del/T790M/C797S) of 10 to 100 nM and an IC50 (H1975(L858R/T790M)) of 10 to 50 nM.
With `C=CC(=O)Nc1cc(Nc2ncc(F)c(Nc3ccccc3P(C)(C)=O)n2)ccc1N1CCC(N2CCN(C)CC2)CC1` [Compound 29, N-(5-((4-((2-(dimethylphosphoryl)phenyl)amino)-5-fluoropyrimidin-2-yl)amino)-2-(4-(4-methylpiperazin-1-yl)piperidin-1-yl)phenyl)acrylamide] the IC50 (EGFR T790M/L858R) was < 10 nM, the IC50 (HCC827(Δ19del)) was 10 to 50 nM and the IC50 (EGFR L858R) was 10 to 100 nM. The IC50 (EGFR Δ19del/T790M/C797S) was < 10 nM and the GI50 (Ba/F3-Δ19del/T790M/C797S) was 10 to 50 nM.
In the case of `C=CC(=O)Nc1cc(Nc2ncc(F)c(Nc3ccccc3P(C)(C)=O)n2)ccc1N(C)CCN(C)C` [Compound 32, N-(2-((2-(dimethylamino)ethyl)(methyl)amino)-5-(4-(2-(dimethylphosphoryl)phenylamino)-5-fluoropyrimidin-2-ylamino)phenyl)acrylamide], the IC50 (EGFR T790M/L858R) is reported as < 10 nM, the IC50 (HCC827(Δ19del)) is reported as < 10 nM and the IC50 (EGFR L858R) is reported as < 10 nM. The IC50 (EGFR Δ19del/T790M/C797S) was 10 to 100 nM and the IC50 (H1975(L858R/T790M)) was 10 to 50 nM.
For `C=CC(=O)Nc1cc(Nc2ncc(Cl)c(Nc3ccccc3P(C)(C)=O)n2)c(OC)cc1N1CCC2(CCC(N(C)C)CC2)CC1` [Compound 33, N-(5-(5-chloro-4-(2-(dimethylphosphoryl)phenylamino)pyrimidin-2-ylamino)-2-(9-(dimethylamino)-3-azaspiro[5.5]undecan-3-yl)-4-methoxyphenyl)acrylamide], the IC50 (EGFR T790M/L858R) was < 10 nM, the IC50 (HCC827(Δ19del)) was 10 to 50 nM and the IC50 (EGFR L858R) was 10 to 100 nM. For the same compound, the IC50 (EGFR Δ19del/T790M/C797S) was < 10 nM and the IC50 (H1975(L858R/T790M)) was 10 to 50 nM.
With `C=CC(=O)Nc1cc(Nc2nccc(Nc3ccccc3P(C)(C)=O)n2)ccc1N(C)CCN(C)C` [Compound 37, N-(2-((2-(dimethylamino)ethyl)(methyl)amino)-5-((4-((2-(dimethylphosphoryl)phenyl)amino)pyrimidin-2-yl)amino)phenyl)acrylamide] the IC50 (EGFR T790M/L858R) was < 10 nM, the IC50 (HCC827(Δ19del)) was < 10 nM and the IC50 (EGFR L858R) was < 10 nM. It also gave an IC50 (EGFR Δ19del/T790M/C797S) of 10 to 100 nM and an IC50 (H1975(L858R/T790M)) of 10 to 50 nM.
`C=CC(=O)Nc1cc(Nc2ncc(Cl)c(Nc3ccccc3P(C)(C)=O)n2)ccc1OC1CCN(C)CC1` [Compound 41, N-(5-((5-chloro-4-((2-(dimethylphosphoryl)phenyl)amino)pyrimidin-2-yl)amino)-2-((1-methylpiperidin-4-yl)oxy)phenyl)acrylamide] was tested, and the IC50 (EGFR T790M/L858R) was < 10 nM, the IC50 (HCC827(Δ19del)) was 10 to 50 nM and the IC50 (EGFR L858R) was 10 to 100 nM. For the same compound, the IC50 (EGFR Δ19del/T790M/C797S) was < 10 nM and the IC50 (H1975(L858R/T790M)) was 10 to 50 nM.
